Measured values: patent US20060014712A1, “Controlled delivery of therapeutic compounds” (CeMines, Inc., priority 2004, published 2006)

Tests used:
Format in all cases: cell-based, human
SK-MEL-28 [1] = experiment: Cell counting after 7 day peptide treatment; details: conc 10 µM, start count 10
Experimental: (§1) The ability to block interaction of MITF, SOX10 and STAT3 with active transcriptional complex and inhibit proliferation and stimulate apoptosis of melanoma cells were tested on human melanoma cell lines SK-MEL-28 and WM 266-4, and mouse melanoma cell line B16. Methods. Human melanoma cell lines SK-MEL-28 and WM 2664 and mouse melanoma cell line B16 were obtained from the American Tissue Culture Collection (ATCC). Cells were cultured according to recommendations of ATCC (DMEM, 10% FCS, penicillin+streptomycin) and used in experiments after two passages in the laboratory. Cells were grown in 24 well plates, each treatment in triplicates. Cells were plated 16 hours prior treatments started. Peptides were added to the media, and media was changed every day during 7 day experiment. CPP concentration was 10 μM For cell counting, cells were trypsinized (0.25% Trypsin, 2 mM EDTA) in Ca^+2, Mg^+2 free PBS. Cells were precipitated and resuspended in 100 μl of PBS, and 5 μl were removed for counting Methods. Human melanoma cell lines SK-MEL-28 and WM 266-4 were obtained from the American Tissue Culture Collection (ATCC) and were cultured according to recommendations of ATCC (DMEM, 10% FCS, penicillin+streptomycin). Human keratinocytes were obtained from Clonetics and cultured according to manufacturers protocol. Cells were used in experiments after two passages in the laboratory. Cells were grown in 24 well plates, each treatment in triplicates. Cells were plated 16 hours prior treatments started. Peptides were added to the media, and media was changed every day during 7 day experiment. CPP concentration was 10 μM. For cell counting, cells were trypsinized (0.25% Trypsin, 2 mM EDTA) in Ca, Mg free PBS. Cells were precipitated and resuspended in 100 μl of PBS, and 5 μl were removed for counting.

WM 266-4 [2] = experiment: Cell counting after 7 day peptide treatment; details: conc 10 µM, start count 10
Experimental: as §1, with “CPP concentration was 10 μM For cell counting, cells were trypsinized (0.25% Trypsin, 2 mM EDTA) in Ca^+2, Mg^+2 free PBS.” left out, “CPP concentration was 10 μM.” left out

SK-MEL-28 [3] = experiment: WST-1 test (mitochondrial activity); details: conc 10 µM, untreated = 1
WM 266-4 [4] = experiment: WST-1 test (mitochondrial activity); details: conc 10 µM, untreated = 1
Experimental: (§2) Methods. Human melanoma cell lines SK-MEL-28 and WM 2664 and mouse melanoma cell line B16 were obtained from the American Tissue Culture Collection (ATCC). Cells were cultured according to recommendations of ATCC (DMEM, 10% FCS, penicillin+streptomycin) and used in experiments after two passages in the laboratory. Cells were grown in 24 well plates, each treatment in triplicates. Cells were plated 16 hours prior treatments started. Peptides were added to the media, and media was changed every day during 7 day experiment. […] Methods. Human melanoma cell lines SK-MEL-28 and WM 266-4 were obtained from the American Tissue Culture Collection (ATCC) and were cultured according to recommendations of ATCC (DMEM, 10% FCS, penicillin+streptomycin). Human keratinocytes were obtained from Clonetics and cultured according to manufacturers protocol. Cells were used in experiments after two passages in the laboratory. Cells were grown in 24 well plates, each treatment in triplicates. Cells were plated 16 hours prior treatments started. Peptides were added to the media, and media was changed every day during 7 day experiment. […] WST-1 test was performed to measure mitochondrial activity, which can also be used as a measure of cell number.

WM 266-4 [5] = experiment: Apoptosis, Annexin V-Cy3 Apoptosis Kit; details: conc 10 µM
Experimental: as §2, with “Apoptosis” for “WST-1 test”, “analyzed using Biovision Annexin V-Cy3 Apoptosis Kit according” for “performed”, “manufacturers protocols.” for “measure mitochondrial activity, which can also be used as a measure of cell number.”

| Sequence | Cell Count 7 d (SK-MEL-28 [1]; CPP mimicking peptides) | Cell Count 7 d (WM 266-4 [2]; CPP mimicking peptides) | WST-1 7 d (SK-MEL-28 [3]; CPP mimicking peptides) | WST-1 7 d (WM 266-4 [4]; CPP mimicking peptides) | Apoptosis 7 d/% (WM 266-4 [5]; CPP mimicking peptides) [%] | Cell Count 7 d (SK-MEL-28 [1]; modified (inhibitor/MMP2, MMP9 site) peptides) | Cell Count 7 d (WM 266-4 [2]; modified peptides) | WST-1 7 d (SK-MEL-28 [3]; modified peptides) | WST-1 7 d (WM 266-4 [4]; modified peptides) | Apoptosis 7 d/% (WM 266-4 [5]; modified peptides) [%] |
| --- | --- | --- | --- | --- | --- | --- | --- | --- | --- | --- |
| RPKKRKVRRRFNINDRIKELGTLIPKSNDPDMRWN [MITF-int1] | 39 | 30 | 0.7 | 0.8 | 21 | – | – | – | – | – |
| RPKKRKVRRRVKRPMNAFMVWAQAARRKLADQY [SOX10-int1] | 28 | 25 | 0.51 | 0.6 | 31 | – | – | – | – | – |
| TTGGSSPQGLEAKRPKKRKVRRRFNINDRIKELGTLIPKSNDPDMRWN [MITF-int1M] | – | – | – | – | – | 42 | 25 | 0.81 | 0.8 | 21 |
